Laboratory results from patent US12630530B2, “FGFR inhibitor compound and use thereof” (HENAN MEDINNO PHARMACEUTICAL TECHNOLOGY CO., LTD., priority 2020, dated 2026).

Key:
Assay type in all cases: biochemical
[1] = target: T1, FGFR1 V561M (Homo sapiens, UniProt P11362, V561M); test: Assay I: inhibitory activity against FGFR mutants (HTRF KinEASE-TK); conditions: Table 1; ATP working concentration 5 μM, substrate TK 1 μM
T1 construct: purchased Signalchem F04-13G
Experimental: (§1) Assay I: Determination of Inhibitory Activity Against FGFR Mutants
(§2) 1×Kinase reaction buffer was formulated with 1×volume of 5× kinase reaction buffer and 4×volume of water; 5 mM MgCl2; and 1 mM DTT.
(§3) 2.3 Screening of Compounds: • 1. […] Adding 1 μl of the compound diluted in buffer to each well, sealing the plate with a sealing membrane and centrifuging the plate at 1000 g for 30 seconds and leaving it at room temperature for 10 minutes. • 6. Formulating 2.5×TK-substrate-biotin and ATP mixture with 1× enzyme reaction buffer and adding 2 μl of K-substrate-biotin/ATP mixture to the reaction plate. • 7. Sealing the plate with a sealing membrane and centrifuging the plate at 1000 g for 30 seconds and allowing it to react at room temperature for 50 minutes. • 8. […] 3. Data Analysis
(§4) 3.3 Calculation of IC50 and plotting of inhibition curves for the compounds.
(§5) The IC50 (half inhibition concentration) of a compound was obtained using the following non-linear fitting equation, wherein data analysis was performed using Graphpad 6.0 software.
(§6) Data were exported from Envision and analyzed manually. The ratios were converted to inhibition rates and IC50 was calculated by Prism GraphPad 6.0 from the inhibition rates. IC50 was calculated again by the ratios to verify accuracy of the results.

[2] = target: T2, FGFR2 V564F (Homo sapiens, UniProt P21802, V564F); test: as above; conditions: Table 1; ATP working concentration 10 μM, substrate TK 1 μM
T2 construct: purchased Signalchem F05-12FG
Experimental: as §1, §2, §3, §4, §5, §6

[3] = target: T3, VEGFR2 (Homo sapiens, UniProt P35968); test: Assay I: kinase inhibition (HTRF KinEASE-TK), VEGFR2; conditions: Table 1; ATP working concentration 5 μM, substrate TK 1 μM
T3 construct: purchased Carna 08-191

[4] = target: T4, FGFR3 V555M (Homo sapiens, UniProt P22607, V555M); test: Assay I: inhibitory activity against FGFR mutants (HTRF KinEASE-TK); conditions: Table 1; ATP working concentration 20 μM, substrate TK 1 μM
T4 construct: purchased Signalchem F06-12GG
Experimental: as §1, §2
2.3 Screening of Compounds: • 1. Diluting a compound 4-fold in a dilution plate with DMSO, with a starting compound concentration of 2 mM (4 mM for Nentedanib). • 2. Diluting the compound 40-fold into 1× kinase reaction buffer and shaking it on a shaker for 20 minutes. • 3. […] Adding 1 μl of the compound diluted in buffer to each well, sealing the plate with a sealing membrane and centrifuging the plate at 1000 g for 30 seconds and leaving it at room temperature for 10 minutes. • 6. Formulating 2.5×TK-substrate-biotin and ATP mixture with 1× enzyme reaction buffer and adding 2 μl of K-substrate-biotin/ATP mixture to the reaction plate. • 7. Sealing the plate with a sealing membrane and centrifuging the plate at 1000 g for 30 seconds and allowing it to react at room temperature for 50 minutes. • 8. Formulating 4×Sa-XL 665 (250 nM) with HTRF assay buffer. • 9. Adding 5 μl Sa-XL 665 and 5 μl TK-Antibody-Cryptate to each well, centrifuging it at 1000 g for 30 seconds, and allowing it to react for 1 hour at room temperature. • 10. Reading fluorescence signals at 615 nm (Cryptate) and 665 nm (XL665) with Biotek. 3. Data Analysis
3.1 Calculation of the ratio for each well: the ratio was calculated as 665/615 nm.
as §4, §5, §6

[5] = target: T5, FGFR1 (Homo sapiens, UniProt P11362); test: Assay II: inhibitory activity against wild-type FGFR (HTRF KinEASE-TK); conditions: Table 2, ATP working concentration 50 μM, substrate TK 1 μM
T5 construct: purchased Carna 08-133
Experimental: (§7) Assay II: Determination of inhibitory activity against wild-type FGFR
as §2
(§8) 3. Formulating 2×FGFR1/FGFR2/FGFR3 with 1× of enzyme reaction buffer.
(§9) 4. Adding 2 μl FGFR1/FGFR2/FGFR3 kinase (formulated in step 3) to each well of the reaction plate.
(§10) 5. Adding 1 μl of the compound diluted in buffer to each well, sealing the plate with a sealing membrane and centrifuging the plate at 1000 g for 30 seconds and leaving it at room temperature for 10 minutes.
(§11) 6. Formulating 2.5×TK-substrate-biotin and ATP mixture with 1× enzyme reaction buffer and adding 2 μl of K-substrate-biotin/ATP mixture to the reaction plate.
(§12) 7. Sealing the plate with a sealing membrane and centrifuging the plate at 1000 g for 30 seconds and allowing it to react at room temperature for 50 minutes.
as §4, §5, §6

[6] = target: T6, FGFR2 (Homo sapiens, UniProt P21802); test: as above; conditions: Table 2, ATP working concentration 50 μM, substrate TK 1 μM
T6 construct: purchased Carna 08-134
Experimental: as §7, §2, §8, §9, §10, §11, §12, §4, §5, §6

[7] = target: T7, FGFR3 (Homo sapiens, UniProt P22607); test: as above; conditions: Table 2, ATP working concentration 50 μM, substrate TK 1 μM
T7 construct: purchased Carna 08-135
Experimental: as §7, §2, §8, §9, §10, §11, §12, §4, §5, §6

T1 sequence (P11362 22-822 V561M): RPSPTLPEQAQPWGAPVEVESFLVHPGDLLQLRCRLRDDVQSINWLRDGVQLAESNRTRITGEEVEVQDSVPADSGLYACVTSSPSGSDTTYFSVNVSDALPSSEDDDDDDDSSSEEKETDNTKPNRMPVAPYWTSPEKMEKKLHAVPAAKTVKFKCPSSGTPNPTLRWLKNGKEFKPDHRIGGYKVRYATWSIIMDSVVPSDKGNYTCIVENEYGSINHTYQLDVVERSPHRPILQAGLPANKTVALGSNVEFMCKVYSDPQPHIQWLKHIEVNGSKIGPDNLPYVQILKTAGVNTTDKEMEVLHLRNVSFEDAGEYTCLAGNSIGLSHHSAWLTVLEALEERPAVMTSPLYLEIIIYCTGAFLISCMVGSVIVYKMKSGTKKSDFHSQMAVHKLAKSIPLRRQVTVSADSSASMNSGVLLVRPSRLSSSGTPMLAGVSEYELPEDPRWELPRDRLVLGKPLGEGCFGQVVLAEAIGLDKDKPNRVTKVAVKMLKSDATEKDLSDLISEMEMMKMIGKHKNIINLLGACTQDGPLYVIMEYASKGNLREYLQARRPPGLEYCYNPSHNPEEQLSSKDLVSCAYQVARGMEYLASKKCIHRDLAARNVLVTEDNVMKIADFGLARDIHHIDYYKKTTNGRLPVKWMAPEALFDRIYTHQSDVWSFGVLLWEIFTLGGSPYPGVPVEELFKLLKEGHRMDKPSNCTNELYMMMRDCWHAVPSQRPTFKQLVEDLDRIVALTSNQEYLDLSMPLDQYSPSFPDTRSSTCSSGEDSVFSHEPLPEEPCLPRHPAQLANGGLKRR
T2 sequence (P21802 22-821 V564F): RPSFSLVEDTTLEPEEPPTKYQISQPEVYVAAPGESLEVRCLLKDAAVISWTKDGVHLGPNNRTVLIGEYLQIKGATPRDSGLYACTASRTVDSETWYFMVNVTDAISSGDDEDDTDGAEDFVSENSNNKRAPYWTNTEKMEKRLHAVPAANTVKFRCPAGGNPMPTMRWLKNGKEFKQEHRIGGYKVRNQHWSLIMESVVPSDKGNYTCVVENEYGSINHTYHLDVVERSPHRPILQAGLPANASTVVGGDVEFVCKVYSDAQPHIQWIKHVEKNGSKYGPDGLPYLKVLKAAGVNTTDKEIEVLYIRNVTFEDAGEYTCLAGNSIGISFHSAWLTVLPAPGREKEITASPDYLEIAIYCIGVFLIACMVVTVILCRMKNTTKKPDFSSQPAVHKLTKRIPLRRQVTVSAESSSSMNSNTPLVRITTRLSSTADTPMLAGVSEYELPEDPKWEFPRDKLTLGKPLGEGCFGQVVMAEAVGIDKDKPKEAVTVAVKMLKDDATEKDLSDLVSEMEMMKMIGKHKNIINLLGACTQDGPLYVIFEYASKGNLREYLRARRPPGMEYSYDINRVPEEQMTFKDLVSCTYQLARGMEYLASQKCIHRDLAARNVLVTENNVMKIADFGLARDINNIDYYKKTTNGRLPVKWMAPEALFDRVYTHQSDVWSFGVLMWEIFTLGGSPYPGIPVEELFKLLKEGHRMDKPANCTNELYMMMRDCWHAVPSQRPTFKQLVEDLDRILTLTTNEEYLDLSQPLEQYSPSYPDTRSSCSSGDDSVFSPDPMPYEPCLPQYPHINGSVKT
T5 sequence (P11362 22-822): as the sequence (P11362 22-822 V561M) above, with M540V counted along it
T6 sequence (P21802 22-821): as the sequence (P21802 22-821 V564F) above, with F543V counted along it
T4 sequence (P22607 23-806 V555M): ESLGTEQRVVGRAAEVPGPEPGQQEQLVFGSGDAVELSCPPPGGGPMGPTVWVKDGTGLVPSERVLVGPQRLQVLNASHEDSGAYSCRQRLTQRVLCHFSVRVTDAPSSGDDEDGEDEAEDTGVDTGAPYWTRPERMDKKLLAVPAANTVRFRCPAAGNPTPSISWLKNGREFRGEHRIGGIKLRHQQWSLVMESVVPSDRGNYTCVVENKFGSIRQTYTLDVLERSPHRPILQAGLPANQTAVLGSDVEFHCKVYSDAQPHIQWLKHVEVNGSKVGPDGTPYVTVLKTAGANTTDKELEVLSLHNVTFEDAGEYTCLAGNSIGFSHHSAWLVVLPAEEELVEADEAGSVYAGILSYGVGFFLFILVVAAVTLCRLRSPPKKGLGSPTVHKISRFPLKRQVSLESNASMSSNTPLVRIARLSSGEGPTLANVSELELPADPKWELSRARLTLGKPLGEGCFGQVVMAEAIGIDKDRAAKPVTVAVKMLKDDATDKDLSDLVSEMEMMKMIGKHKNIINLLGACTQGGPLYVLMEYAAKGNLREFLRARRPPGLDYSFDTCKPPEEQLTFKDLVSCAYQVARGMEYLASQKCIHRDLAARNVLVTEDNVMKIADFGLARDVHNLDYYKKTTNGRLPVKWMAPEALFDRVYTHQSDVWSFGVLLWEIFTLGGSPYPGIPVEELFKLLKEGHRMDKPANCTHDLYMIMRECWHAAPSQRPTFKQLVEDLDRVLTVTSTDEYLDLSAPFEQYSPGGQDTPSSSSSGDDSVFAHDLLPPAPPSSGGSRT
T7 sequence (P22607 23-806): as the sequence (P22607 23-806 V555M) above, with M533V counted along it
T3 sequence (P35968 20-1356): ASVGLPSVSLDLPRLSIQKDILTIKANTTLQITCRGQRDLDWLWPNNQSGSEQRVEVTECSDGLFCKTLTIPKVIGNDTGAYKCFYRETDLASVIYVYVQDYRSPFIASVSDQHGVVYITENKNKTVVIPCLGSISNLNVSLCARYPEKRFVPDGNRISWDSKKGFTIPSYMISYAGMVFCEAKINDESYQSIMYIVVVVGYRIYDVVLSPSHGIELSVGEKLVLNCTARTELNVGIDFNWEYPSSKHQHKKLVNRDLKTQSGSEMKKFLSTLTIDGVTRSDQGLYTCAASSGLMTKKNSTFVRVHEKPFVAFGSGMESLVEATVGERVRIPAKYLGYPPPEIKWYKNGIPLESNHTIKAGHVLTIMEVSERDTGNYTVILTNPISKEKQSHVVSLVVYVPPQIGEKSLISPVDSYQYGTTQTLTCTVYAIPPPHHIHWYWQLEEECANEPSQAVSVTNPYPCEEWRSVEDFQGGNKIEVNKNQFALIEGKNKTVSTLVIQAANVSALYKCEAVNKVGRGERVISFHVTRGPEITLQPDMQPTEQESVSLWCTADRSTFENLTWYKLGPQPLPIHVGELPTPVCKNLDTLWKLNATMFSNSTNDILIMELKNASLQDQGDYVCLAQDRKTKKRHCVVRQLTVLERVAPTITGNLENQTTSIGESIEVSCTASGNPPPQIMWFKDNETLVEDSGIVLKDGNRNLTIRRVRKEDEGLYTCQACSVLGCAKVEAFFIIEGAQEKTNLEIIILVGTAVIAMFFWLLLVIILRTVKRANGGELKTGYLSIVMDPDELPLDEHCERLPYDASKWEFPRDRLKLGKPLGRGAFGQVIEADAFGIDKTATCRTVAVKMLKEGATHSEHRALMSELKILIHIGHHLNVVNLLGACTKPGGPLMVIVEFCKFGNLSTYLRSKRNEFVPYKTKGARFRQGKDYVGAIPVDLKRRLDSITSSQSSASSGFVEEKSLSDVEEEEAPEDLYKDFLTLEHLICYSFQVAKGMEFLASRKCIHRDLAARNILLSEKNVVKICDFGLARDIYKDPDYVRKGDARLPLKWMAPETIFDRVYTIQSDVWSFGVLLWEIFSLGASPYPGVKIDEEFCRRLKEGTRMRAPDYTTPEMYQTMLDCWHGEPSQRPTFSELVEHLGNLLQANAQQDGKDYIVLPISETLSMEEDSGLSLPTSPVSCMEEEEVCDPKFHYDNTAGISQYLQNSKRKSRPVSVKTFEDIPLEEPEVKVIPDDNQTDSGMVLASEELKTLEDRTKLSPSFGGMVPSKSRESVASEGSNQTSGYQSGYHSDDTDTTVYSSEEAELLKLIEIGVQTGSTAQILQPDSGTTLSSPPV

SMILES | IC50 [1] | IC50 [2] | IC50 [3] | IC50 [4] | IC50 [5] | IC50 [6] | IC50 [7]
CC(Oc1ccc2[nH]nc(C(=O)Nc3ccc(N4CC[C@@H](O)C4)cc3)c2c1)c1c(Cl)cncc1Cl (stereo partly drawn) [Compound 3, 5-(1-(3,5-dichloropyridin-4-yl)ethoxy)-N-(4-((R)-3-hydroxypyrrolidin-1-yl)phenyl)-1H-indazole-3-carboxamide] | 69.7 nM | 22.1 nM | > 10000 nM |  |  |  | 
CC(Oc1ccc2[nH]nc(C(=O)Nc3ccc(N4CCOCC4)nc3)c2c1)c1c(Cl)cncc1Cl (stereo not shown) [Compound 4, 5-(1-(3,5-dichloropyridin-4-yl)ethoxy)-N-(6-morpholinopyridin-3-yl)-1H-indazole-3-carboxamide] | 95.1 nM | 9.5 nM | 1590 nM |  |  |  | 
C[C@@H]1CN(c2ccc(NC(=O)c3n[nH]c4ccc(O[C@H](C)c5c(Cl)cncc5Cl)cc34)cc2)C[C@H](C)N1 [Compound 6, 5-((R)-1-(3,5-dichloropyridin-4-yl)ethoxy)-N-(4-((3S,5R)-3,5-dimethylpiperazin-1-yl)phenyl)-1H-indazole-3-carboxamide] | 2.3 nM | 0.66 nM | 84.1 nM | 0.94 nM | 27.7 nM | 21.3 nM | 52.2 nM
C[C@@H](Oc1ccc2[nH]nc(C(=O)Nc3cnn(CCO)c3)c2c1)c1c(Cl)cncc1Cl [Compound 7, (R)-5-(1-(3,5-dichloropyridin-4-yl)ethoxy)-N-(1-(2-hydroxyethyl)-1H-pyrazol-4-yl)-1H-indazole-3-carboxamide] | 5.2 nM | 0.42 nM | 97.6 nM | 0.73 nM | 27.5 nM | 7.6 nM | 42.6 nM
CC(Oc1ccc2[nH]nc(C(=O)Nc3ccc(N4C[C@@H](C)N[C@@H](C)C4)nc3)c2c1)c1c(Cl)cncc1Cl (stereo partly drawn) [Compound 8, 5-(1-(3,5-dichloropyridin-4-yl)ethoxy)-N-(6-((3S, 5R)-3,5-dimethylpiperazin-1-yl)pyridin-3-yl)-1H-indazole-3-carboxamide] | 2.3 nM | 4 nM | 224 nM | 2.6 nM | 69.7 nM | 58.6 nM | 106 nM
CC(Oc1ccc2[nH]nc(C(=O)Nc3ccc(N4CCN(C)CC4)cc3)c2c1)c1c(Cl)cncc1Cl (stereo not shown) [Compound 9, 5-(1-(3,5-dichloropyridin-4-yl)ethoxy)-N-(4-(4-methylpiperazin-1-yl)phenyl)-1H-indazole-3-carboxamide] | 1 nM | 0.94 nM | 152 nM | 1.1 nM | 61 nM | 48.7 nM | 102 nM
CCN1CCN(c2ccc(NC(=O)c3n[nH]c4ccc(OC(C)c5c(Cl)cncc5Cl)cc34)cc2)CC1 (stereo not shown) [Compound 10, 5-(1-(3,5-dichloropyridin-4-yl)ethoxy)-N-(4-(4-ethylpiperazin-1-yl)phenyl)-1H-indazole-3-carboxamide] | 1.7 nM | 3.2 nM | 1390 nM | 2 nM | 64.5 nM | 48 nM | 98.8 nM
CC(Oc1ccc2[nH]nc(C(=O)Nc3cnn(CCC#N)c3)c2c1)c1c(Cl)cncc1Cl (stereo not shown) [Compound 11, N-(1-(2-cyanoethyl)-1H-pyrazol-4-yl)-5-(1-(3,5-dichloropyridin-4-yl)ethoxy)-1H-indazole-3-carboxamide] | 5.6 nM | 1.1 nM | 230 nM | 1.7 nM |  |  | 
CC(Oc1ccc2[nH]nc(C(=O)Nc3cnn(C4CC(O)C4)c3)c2c1)c1c(Cl)cncc1Cl (stereo not shown) [Compound 12, 5-(1-(3,5-dichloropyridin-4-yl)ethoxy)-N-(1-(3-hydroxycyclobutyl)-1H-pyrazol-4-yl)-1H-indazole-3-carboxamide] | 1.9 nM | 0.48 nM | 208 nM | 0.74 nM | 45.1 nM | 24.5 nM | 42.9 nM
CC(Oc1ccc2[nH]nc(C(=O)Nc3ccc(N4CCC(O)CC4)cc3)c2c1)c1c(Cl)cncc1Cl (stereo not shown) [Compound 13, 5-(1-(3,5-dichloropyridin-4-yl)ethoxy)-N-(4-(4-hydroxypiperidin-1-yl)phenyl)-1H-indazole-3-carboxamide] | 6.8 nM | 8.9 nM | > 10000 nM | 5.9 nM |  |  | 
CC(Oc1ccc2[nH]nc(C(=O)Nc3cnn(CCC4(O)CC4)c3)c2c1)c1c(Cl)cncc1Cl (stereo not shown) [Compound 15, 5-(1-(3,5-dichloropyridin-4-yl)ethoxy)-N-(1-(2-(1-hydroxycyclopropyl)ethyl)-1H-pyrazol-4-yl)-1H-indazole-3-carboxamide] | 2.2 nM | 0.84 nM | 66.2 nM | 2.1 nM |  |  | 
CC(Oc1ccc2[nH]nc(C(=O)Nc3ccc(N4C[C@@H](C)N[C@@H](C)C4)cn3)c2c1)c1c(Cl)cncc1Cl (stereo partly drawn) [Compound 16, 5-(1-(3,5-dichloropyridin-4-yl)ethoxy)-N-(5-((3S, 5R)-3,5-dimethylpiperazin-1-yl)pyridin-2-yl)-1H-indazole-3-carboxamide] | 22.8 nM | 34.1 nM | 1210 nM | 41.7 nM |  |  | 
CC(Oc1ccc2[nH]nc(C(=O)Nc3ccc(N4C[C@@H](C)N[C@@H](C)C4)c(F)c3)c2c1)c1c(Cl)cncc1Cl (stereo partly drawn) [Compound 17, 5-(1-(3,5-dichloropyridin-4-yl)ethoxy)-N-(4-((3S, 5R)-3,5-dimethylpiperazin-1-yl)-3-fluorophenyl)-1H-indazole-3-carboxamide] | 8.6 nM | 2.3 nM | 173 nM | 6.9 nM |  |  | 
CCN1CCC(c2ccc(NC(=O)c3n[nH]c4ccc(OC(C)c5c(Cl)cncc5Cl)cc34)cc2)CC1 (stereo not shown) [Compound 18, 5-(1-(3,5-dichloropyridin-4-yl)ethoxy)-N-(4-(1-ethylpiperidin-4-yl)phenyl)-1H-indazole-3-carboxamide] | 1.6 nM | 0.63 nM | 141 nM | 1.1 nM |  |  | 
CC(Oc1ccc2[nH]nc(C(=O)Nc3cnn(CCN4CCOCC4)c3)c2c1)c1c(Cl)cncc1Cl (stereo not shown) [Compound 19, 5-(1-(3,5-dichloropyridin-4-yl)ethoxy)-N-(1-(2-morpholinoethyl)-1H-pyrazol-4-yl)-1H-indazole-3-carboxamide] | 0.35 nM | 0.24 nM | 63.4 nM | 0.27 nM |  |  | 
CCn1cc(NC(=O)c2n[nH]c3ccc(OC(C)c4c(Cl)cncc4Cl)cc23)cn1 (stereo not shown) [Compound 20, 5-(1-(3,5-dichloropyridin-4-yl)ethoxy)-N-(1-ethyl-1H-pyrazol-4-yl)-1H-indazole-3-carboxamide] | 9.1 nM | 0.82 nM | 327 nM | 0.88 nM |  |  | 
CC(Oc1ccc2[nH]nc(C(=O)Nc3cnn(C4CN(C)C4)c3)c2c1)c1c(Cl)cncc1Cl (stereo not shown) [Compound 21, 5-(1-(3,5-dichloropyridin-4-yl)ethoxy)-N-(1-(1-methylazetidin-3-yl)-1H-pyrazol-4-yl)-1H-indazole-3-carboxamide] | 0.27 nM | 0.09 nM | 39.4 nM | 0.15 nM |  |  | 
CC(Oc1ccc2[nH]nc(C(=O)Nc3cnn(CC4CCN(C)CC4)c3)c2c1)c1c(Cl)cncc1Cl (stereo not shown) [Compound 22] | 0.91 nM | 0.6 nM | 179 nM | 0.79 nM |  |  | 
